# Experiments:
# plasma proteins [1] = assay: Protein binding in rat plasma (dialysis); type: in vitro ADME; settings: plasma; rat, summary over concentrations; read-out: bound to plasma proteins
# plasma proteins [2] = assay: Plasma protein binding, summary over species; type: in vitro ADME; settings: species not specified
# [3] = clinical trials in patients with obesity, PWS, or type 2 diabetes; cited from earlier work
# [4] = Major metabolites in rats dosed SC; type: in vivo
# [5] = Pharmacokinetics after intravenous infusion in humans; type: in vivo; settings: Human, 30-minute IV Infusion, 2.0 mg (0.9 mg/m^2)
SMILES,fraction unbound at 4 h (plasma proteins [1]),fraction bound to plasma proteins (plasma proteins [2]),adverse events (AEs) [3],pathway giving the major metabolites observed [4],kel [5],AUC(0-inf) ([5]; in vivo),clearance ([5]; in vivo),half-life ([5]; in vivo),"Vd ([5]; in vivo, read-out: Vdss)"
CO[C@@H]1[C@H](OC(=O)N2CC(CCN3CCOCC3)C2)CC[C@]2(CO2)[C@H]1[C@@]1(C)O[C@@H]1CC=C(C)C [Compound A],0.3 to 0.6,0.3 to 0.7,–,–,–,–,–,–,–
"CO[C@@H]1[C@H](OC(=O)/C=C/c2ccc(OCCN(C)C)cc2)CC[C@]2(CO2)[C@H]1[C@@]1(C)O[C@@H]1CC=C(C)C [beloranib, reference compound]",–,–,venous thromboembolism,GSH conjugation and subsequent metabolic degradation of the GSH conjugates,0.120 ± 0.070 h⁻¹,5.82 ± 2.46 ng·h/mL,64.5 mL/min/kg,7.06 ± 2.66 h,25.4 ± 19.2 L/kg

# Source: patent publication US20200030278A1, “PHARMACEUTICAL COMPOSITIONS OF METAP-2 INHIBITORS” (Zafgen, Inc., priority 2017, published 2020)
